Molecules are shown by their SMILES.

One experiment addresses T1, SpRai1 (Schizosaccharomyces pombe, UniProt O13836).
T1 construct: gene din1; full-length, pET28a (for crystallization), E. coli BL21 (DE3) Rosetta, Ni-NTA and gel filtration
T1 sequence (O13836 1-352): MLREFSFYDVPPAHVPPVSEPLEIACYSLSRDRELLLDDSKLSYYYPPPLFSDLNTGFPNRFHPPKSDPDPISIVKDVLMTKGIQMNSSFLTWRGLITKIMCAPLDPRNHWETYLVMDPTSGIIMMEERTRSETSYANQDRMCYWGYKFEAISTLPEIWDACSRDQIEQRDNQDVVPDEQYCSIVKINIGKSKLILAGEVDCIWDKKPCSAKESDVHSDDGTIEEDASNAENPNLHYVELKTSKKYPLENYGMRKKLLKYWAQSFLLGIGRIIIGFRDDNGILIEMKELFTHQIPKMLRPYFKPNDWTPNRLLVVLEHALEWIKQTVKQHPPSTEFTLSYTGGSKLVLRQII
As to the kind of experiment: X-ray crystal structure, crystal soaked […] h in […] ligand. It counts as binding. To be noted: 1.9 Å; two magnesium ions observed; active site.

The next experiment addresses T2, mDXO (Mus musculus, UniProt O70348, E192S/E234Q/E253Q).
T2 construct: gene Dxo; full-length, His tag, pET28a, E. coli BL21 (DE3) Rosetta, Ni-NTA and gel filtration; residues 1-26 with His tag and 385-397 not seen in density
T2 sequence (O70348 1-397 E192S/E234Q/E253Q): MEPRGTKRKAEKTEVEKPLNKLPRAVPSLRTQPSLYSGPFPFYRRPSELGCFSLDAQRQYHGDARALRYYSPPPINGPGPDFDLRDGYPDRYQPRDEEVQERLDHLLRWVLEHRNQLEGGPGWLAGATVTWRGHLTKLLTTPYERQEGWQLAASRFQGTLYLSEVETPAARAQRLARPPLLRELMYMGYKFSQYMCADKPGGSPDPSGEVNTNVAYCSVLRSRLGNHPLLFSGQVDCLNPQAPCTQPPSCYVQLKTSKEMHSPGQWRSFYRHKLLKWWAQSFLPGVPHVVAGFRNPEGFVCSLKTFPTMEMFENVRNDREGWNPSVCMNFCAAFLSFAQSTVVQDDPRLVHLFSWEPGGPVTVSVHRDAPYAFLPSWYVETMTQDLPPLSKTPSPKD
Put plainly: X-ray crystal structure, crystal soaked in […] CaCl2 for […] h, then in […] ligand for […] h. It counts as binding. To be noted: 1.6 Å; active site; pH 6.8, 20°C.

`Cc1cc2nc3c(=O)[nH]c(=O)nc-3n(C[C@H](O)[C@H](O)[C@H](O)COP(=O)(O)OP(=O)(O)OC[C@H]3O[C@@H](n4cnc5c(N)ncnc54)[C@H](O)[C@@H]3OP(=O)(O)O)c2cc1C` [3′-FADP]: the “X-ray crystal structure, crystal soaked 1 h in 10 mM ligand” value on SpRai1 is “good-quality electron density for FADP in complex with wild-type SpRai1”.
As to `CC(C)(COP(=O)(O)OP(=O)(O)OC[C@H]1O[C@@H](n2cnc3c(N)ncnc32)[C@H](O)[C@@H]1OP(=O)(O)O)[C@@H](O)C(=O)NCCC(=O)NCCS` [CoA], the “X-ray crystal structure, crystal soaked in 20 mM CaCl2 for 1 h, then in 10 mM li” value at mDXO is “crystal structure of the E192S/E234Q/E253Q mutant of mDXO in complex with CoA”.

The values are drawn from publication PMC7293010, “DXO/Rai1 enzymes remove 5′-end FAD and dephospho-CoA caps on RNAs” (Nucleic Acids Research, 2020).
